Values joined by “and” are separate entries in the source; they are usually repeats but may differ in a detail not shown here. Equal values may be shown once. Toxic doses and inconclusive results are not listed. Rule for the calls: active = survival T/C of 150% or more; inactive = T/C below 125% in these data.
System: CD2F1 mice, L1210 leukemia ip, survival T/C
Assay: NCI In Vivo Anticancer Drug Screen. Data for tumor model L1210 Leukemia (intraperitoneal) in CD2F1 (CDF1) mice
Details: higher = longer survival
Outline: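 Activity against a transplanted murine tumor was judged by comparing the compound group with a vehicle group. The outcome in the treated animals was divided by that in the controls.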

[1] = endpoint: mean survival time, dose: 100.0 mg/kg/injection, schedule: Q04DX003 (ip), vehicle: saline
[2] = endpoint: mean survival time, dose: 200.0 mg/kg/injection, schedule: Q04DX003 (ip), vehicle: saline
[3] = endpoint: mean survival time, dose: 400.0 mg/kg/injection, schedule: Q04DX003 (ip), vehicle: saline
[4] = endpoint: mean survival time, dose: 75.0 mg/kg/injection, schedule: Q01DX001 (ip), vehicle: saline
[5] = endpoint: mean survival time, dose: 100.0 mg/kg/injection, schedule: Q01DX009 (ip), vehicle: saline with Tween-80
[6] = endpoint: mean survival time, dose: 100.0 mg/kg/injection, schedule: Q04DX003 (ip), vehicle: saline with Tween-80
[7] = endpoint: mean survival time, dose: 200.0 mg/kg/injection, schedule: Q01DX009 (ip), vehicle: saline with Tween-80
[8] = endpoint: mean survival time, dose: 200.0 mg/kg/injection, schedule: Q04DX003 (ip), vehicle: saline with Tween-80
[9] = endpoint: mean survival time, dose: 400.0 mg/kg/injection, schedule: Q01DX009 (ip), vehicle: saline with Tween-80
[10] = endpoint: mean survival time, dose: 400.0 mg/kg/injection, schedule: Q04DX003 (ip), vehicle: saline with Tween-80
[11] = endpoint: mean survival time, dose: 200.0 mg/kg/injection, schedule: Q04DX002 (ip), vehicle: saline with Tween-80

Measured: T/C

O=C1c2ccccc2C(=O)c2c(NCCN3CCCCC3)ccc(NCCN3CCCCC3)c21
inactive: endpoint: mean survival time, dose: 8.0 mg/kg/injection, schedule: Q01DX009 (ip), vehicle: acid diluted with saline 100 % of control | endpoint: mean survival time, dose: 16.0 mg/kg/injection, schedule: Q01DX009 (ip), vehicle: acid diluted with saline 102 % of control | endpoint: mean survival time, dose: 32.0 mg/kg/injection, schedule: Q01DX009 (ip), vehicle: acid diluted with saline 110 % of control | endpoint: mean survival time, dose: 64.0 mg/kg/injection, schedule: Q01DX009 (ip), vehicle: acid diluted with saline 104 % of control

Cc1cc(C)c(S(=O)O)c(C)c1
inactive: endpoint: mean survival time, dose: 100.0 mg/kg/injection, schedule: Q01DX001 (ip), vehicle: saline 103 % of control | endpoint: mean survival time, dose: 200.0 mg/kg/injection, schedule: Q01DX001 (ip), vehicle: saline 103 % of control | endpoint: mean survival time, dose: 400.0 mg/kg/injection, schedule: Q01DX001 (ip), vehicle: saline 103 % of control

CC(C)N=C1N(C(C)C)C([O-])=N[N+]1(C)C
inactive: endpoint: mean survival time, dose: 100.0 mg/kg/injection, schedule: Q01DX009 (ip), vehicle: saline 101 % of control | [1] 108 % of control | endpoint: mean survival time, dose: 200.0 mg/kg/injection, schedule: Q01DX009 (ip), vehicle: saline 101 % of control | [2] 96 % of control | endpoint: mean survival time, dose: 400.0 mg/kg/injection, schedule: Q01DX009 (ip), vehicle: saline 101 % of control | [3] 107 % of control

Nc1nc2c(ncn2-c2ccccc2F)c(=O)[nH]1
inactive: endpoint: mean survival time, dose: 25.0 mg/kg/injection, schedule: Q01DX001 (ip), vehicle: saline with Tween-80 102 % of control | endpoint: mean survival time, dose: 50.0 mg/kg/injection, schedule: Q01DX001 (ip), vehicle: saline with Tween-80 106 % of control | endpoint: mean survival time, dose: 100.0 mg/kg/injection, schedule: Q01DX001 (ip), vehicle: saline with Tween-80 94 % of control and 98 % of control

CCC1c2cc(O)c(OC)cc2CCN1C (stereo unspecified)
inactive: [4] 106 % of control

CCN(CC)CC(C)(C)CO
inactive: endpoint: mean survival time, dose: 50.0 mg/kg/injection, schedule: Q01DX009 (ip), vehicle: saline with Tween-80 104 % of control | [5] 95 % of control | [6] 92 % of control | [7] 98 % of control | [8] 97 % of control

CS(=O)(=O)OCCNc1ccc([N+](=O)[O-])cc1
inactive: endpoint: mean survival time, dose: 8.0 mg/kg/injection, schedule: Q01DX001 (ip), vehicle: saline 100 % of control | endpoint: mean survival time, dose: 10.0 mg/kg/injection, schedule: Q01DX010 (ip), vehicle: saline 103 % of control | endpoint: mean survival time, dose: 16.0 mg/kg/injection, schedule: Q01DX001 (ip), vehicle: saline 95 % of control | endpoint: mean survival time, dose: 30.0 mg/kg/injection, schedule: Q01DX010 (ip), vehicle: saline 113 % of control | endpoint: mean survival time, dose: 32.0 mg/kg/injection, schedule: Q01DX001 (ip), vehicle: saline 98 % of control | endpoint: mean survival time, dose: 64.0 mg/kg/injection, schedule: Q01DX001 (ip), vehicle: saline 90 % of control and 100 % of control | endpoint: mean survival time, dose: 100.0 mg/kg/injection, schedule: Q01DX010 (ip), vehicle: saline 119 % of control | endpoint: mean survival time, dose: 128.0 mg/kg/injection, schedule: Q01DX001 (ip), vehicle: saline 96 % of control | endpoint: mean survival time, dose: 256.0 mg/kg/injection, schedule: Q01DX001 (ip), vehicle: saline 96 % of control | endpoint: mean survival time, dose: 300.0 mg/kg/injection, schedule: Q01DX010 (ip), vehicle: saline 97 % of control

COC(=O)C(C(=O)OC)c1ccc(C)c(OC)c1
inactive: [5] 97 % of control | [6] 104 % of control | [7] 98 % of control | [8] 104 % of control | [9] 97 % of control | [10] 102 % of control

CC(C)(C)NC(C1=CC(C)(C)c2ccccc2C1=O)c1ccccc1 (stereo unspecified)
inactive: endpoint: median survival time, dose: 50.0 mg/kg/injection, schedule: Q01DX009 (ip), vehicle: Klucel (hydroxypropylcellulose) (HPC) 101 % of control | endpoint: median survival time, dose: 100.0 mg/kg/injection, schedule: Q01DX009 (ip), vehicle: Klucel (hydroxypropylcellulose) (HPC) 101 % of control | endpoint: median survival time, dose: 200.0 mg/kg/injection, schedule: Q01DX009 (ip), vehicle: Klucel (hydroxypropylcellulose) (HPC) 101 % of control

CCOC(=O)C(CCCCC(NC(C)=O)(C(=O)OCC)C(=O)OCC)(NC(C)=O)C(=O)OCC
inactive: [6] 98 % of control | [8] 92 % of control | [10] 92 % of control

CCCCN=C(N)CCl
inactive: endpoint: mean survival time, dose: 25.0 mg/kg/injection, schedule: Q04DX002 (ip), vehicle: saline 100 % of control | endpoint: mean survival time, dose: 50.0 mg/kg/injection, schedule: Q04DX002 (ip), vehicle: saline 100 % of control | endpoint: mean survival time, dose: 100.0 mg/kg/injection, schedule: Q04DX002 (ip), vehicle: saline 100 % of control and 111 % of control

CCOC(=O)C(C)(C)Br
inactive: endpoint: mean survival time, dose: 100.0 mg/kg/injection, schedule: Q01DX009 (ip), vehicle: saline sonified 105 % of control | [5] 102 % of control | [6] 95 % of control and 98 % of control and 103 % of control | endpoint: mean survival time, dose: 200.0 mg/kg/injection, schedule: Q01DX009 (ip), vehicle: saline sonified 100 % of control | [8] 95 % of control and 98 % of control and 100 % of control | endpoint: mean survival time, dose: 400.0 mg/kg/injection, schedule: Q01DX009 (ip), vehicle: saline sonified 106 % of control | [9] 90 % of control | [10] 96 % of control and 103 % of control and 106 % of control

Cc1ccc(S(=O)[O-])cc1.[C-]#[O+].[C-]#[O+].[Fe+6].[c-]1[c-][c-][cH-][c-]1
inactive: endpoint: mean survival time, dose: 50.0 mg/kg/injection, schedule: Q04DX002 (ip), vehicle: saline with Tween-80 97 % of control | [11] 108 % of control

COC(=O)/C=C(/Nc1ccccc1C(=O)O)C(=O)OC
inactive: [1] 89 % of control | [2] 101 % of control | [3] 90 % of control

CCCCCCCCCCCCNC(=O)Nc1cccc(OC)c1
inactive: endpoint: mean survival time, dose: 100.0 mg/kg/injection, schedule: Q04DX002 (ip), vehicle: saline with Tween-80 94 % of control | [11] 94 % of control | endpoint: mean survival time, dose: 400.0 mg/kg/injection, schedule: Q04DX002 (ip), vehicle: saline with Tween-80 87 % of control

Nc1nc(N)c2c(ccc3c2ccn3Cc2cccc([N+](=O)[O-])c2)n1
inactive: endpoint: median survival time, dose: 0.75 mg/kg/injection, schedule: Q01DX009 (ip), vehicle: saline with Tween-80 104 % of control | endpoint: median survival time, dose: 1.5 mg/kg/injection, schedule: Q01DX009 (ip), vehicle: saline with Tween-80 111 % of control | endpoint: median survival time, dose: 1.56 mg/kg/injection, schedule: Q01DX009 (ip), vehicle: saline with Tween-80 110 % of control | endpoint: median survival time, dose: 3.0 mg/kg/injection, schedule: Q01DX009 (ip), vehicle: saline with Tween-80 117 % of control | endpoint: median survival time, dose: 3.12 mg/kg/injection, schedule: Q01DX009 (ip), vehicle: saline with Tween-80 118 % of control | endpoint: median survival time, dose: 12.5 mg/kg/injection, schedule: Q01DX009 (ip), vehicle: saline with Tween-80 90 % of control and 98 % of control | endpoint: median survival time, dose: 25.0 mg/kg/injection, schedule: Q01DX009 (ip), vehicle: saline with Tween-80 102 % of control and 103 % of control

FC1(F)C(I)=C(I)C1(F)F
inactive: [4] 97 % of control | endpoint: mean survival time, dose: 150.0 mg/kg/injection, schedule: Q01DX001 (ip), vehicle: saline 103 % of control | endpoint: mean survival time, dose: 300.0 mg/kg/injection, schedule: Q01DX001 (ip), vehicle: saline 105 % of control

O=c1c(Br)cnc2ccccn12
inactive: endpoint: mean survival time, dose: 12.5 mg/kg/injection, schedule: Q01DX001 (ip), vehicle: saline 107 % of control | endpoint: mean survival time, dose: 25.0 mg/kg/injection, schedule: Q01DX001 (ip), vehicle: saline 98 % of control | endpoint: mean survival time, dose: 50.0 mg/kg/injection, schedule: Q01DX001 (ip), vehicle: saline 102 % of control

CCCC(=O)Nc1ncnc2c1[nH]c(=O)n2C1OC2COP(=O)(O)OC2C1OC(=O)CCC (stereo unspecified)
inactive: endpoint: mean survival time, dose: 6.25 mg/kg/injection, schedule: Q01DX005 (ip), vehicle: water 97 % of control | endpoint: mean survival time, dose: 12.5 mg/kg/injection, schedule: Q01DX005 (ip), vehicle: water 93 % of control | endpoint: mean survival time, dose: 25.0 mg/kg/injection, schedule: Q01DX005 (ip), vehicle: water 97 % of control | endpoint: mean survival time, dose: 50.0 mg/kg/injection, schedule: Q01DX005 (ip), vehicle: water 97 % of control | endpoint: mean survival time, dose: 100.0 mg/kg/injection, schedule: Q01DX005 (ip), vehicle: water 89 % of control

Source: PubChem BioAssay AID256 (DTP/NCI, 2004)
